Reference: patent US20230390366A1, “PARAPHARMACEUTICAL OR PHARMACEUTICAL COMPOSITION ADMINISTRABLE TO A LIVING BEING, PREFERABLY A HUMAN BEING, COMPRISING AT LEAST ONE ENZYME FOR THE TREATMENT AND/OR PREVENTION OF BACTERIAL INFECTIONS INVOLVING BIOFILM FORMATION” (priority 2020, published 2023)

Legend:
Type in all cases: cell-based
[1] = system: S. aureus ATCC33591 biofilm; assay: Curative enzyme treatment followed by 24 hours vancomycin, biofilm in 96-well plates, viability (resazurin) and biomass (crystal violet); conditions: vancomycin 10 mg and 20 mg/L, absence of enzyme treatment
Experimental: For the tests described below, vancomycin was used as the antibiotic molecule. The antibiotic was added at different concentrations in TGN for 24 hours at 37° C. on the biofilms pretreated with the enzyme composition according to the invention (see the below sections). The biofilm was then washed before carrying out the biomass and viability measurements.
In this model, cell viability was measured indirectly, by measuring the metabolism of cells in the biofilm. Indeed, viability was quantified by tracking changes in the colour of resazurin (7-Hydroxy-3H-phenoxazin-3-one 10 oxide) (prestoBlue, ThermoFisher). […] The quantification of resorufin was carried out by measuring fluorescence. […]
The experimental method for cultivating the strains and forming the biofilm is described in point 1.1 of this document. […] The biofilms were then washed 2× with PBS (200 μl) before biomass and viability were analysed. Biomass was quantified via the CV staining technique following the procedure described in point 1.1. […] The plate containing all the samples was then incubated for 24 hours at 37° C. in the spectraMax M3 plate reader. Fluorescence was measured every 10 minutes for 18 hours (excitation 560 nm, emission 590 nm). […]

[2] = system: S. aureus biofilm; assay: Curative enzyme treatment followed by 24 hours vancomycin, biofilm on titanium coupons, viability by CFU counting; conditions: vancomycin 20 mg/L
Text: (§1) Two different biofilm models were used: static biofilm in 96-well plate (as described previously) and biofilm on titanium coupons. Titanium was chosen because it is a material widely used in the manufacture of implants (e.g. orthopaedic prostheses, dental implants, heart valves, pacemakers, etc.). The techniques used to measure viability differ between the two models and are detailed below.
(§2) In this model, viability was quantified after detachment and homogenisation of the biofilm via the technique of spreading and counting cells on a TSA culture media (VWR).
(§3) Titanium coupons (n=3 for each condition) were placed in the wells of a 12-well plate and incubated at 37° C. with agitation (50 rpm) for 24 hours in 3 ml of bacterial inoculum at an OD of 0.005 (10^6 CFU/ml) in order to allow biofilm to form. The coupons were then washed 2× with PBS (2 ml) and treated for 1 hour at 37° C. with the composition according to the invention or the solution without enzymes (CT−=20 mM TrisHCl pH7). The coupons were then washed twice with PBS (2 ml) and reincubated in 750 μl of TGN containing 0 or 20 mg/L of vancomycin for 24 hours at 37° C. with agitation (50 rpm). After two washes with PBS (2 ml), the biofilm was detached and homogenised in 2 ml of PBS. Different dilutions were carried out (from 10 to 10) and 10 μl of each dilution was spread on a TSA dish. Colonies (CFU) were counted after 18 hours of incubation at 37° C.
(§4) To analyse the effect of the compositions according to the invention, a statistical test (one-way ANOVA and Tukey's post-hoc test) was carried out. This test compares the fluorescence (viability) or absorbance (biomass) values of the CT− negative control (=treatment with buffer without enzymes) and of the biofilms treated with the enzyme compositions, at each vancomycin concentration. The difference is significant when the pvalue of the statistical test is less than or equal to 0.05 (* used on graphs). When this is specified in the comparative examples, the activity of the various enzyme compositions is compared (one-way ANOVA and post-hoc Tukey test).

[3] = system: S. epidermidis ATCC35984 biofilm; assay: as above; conditions: vancomycin 20 mg/L, absence of enzyme treatment (CT−, TGN)
Text: as §1, §2, §3, §4

[4] = system: S. aureus biofilm; assay: Curative enzyme treatment (1 hour, 37° C.) of preformed 24-hour biofilm in 96-well plates, residual biomass by crystal violet staining (A570); conditions: S. aureus ATCC33591 and 7832; 100 U/ml in TGN; vs CT−; 1 biofilm/3 of the panel significantly reduced
Experimental: The effect of a treatment with the composition according to the invention on the biomass of biofilms was studied in a static model in 96-well plates. The curative enzyme treatment was carried out on a preformed 24-hour biofilm. To test its efficacy in reducing the biomass of biofilms, the composition according to the invention was brought into contact with the biofilm for 1 hour at 37° C. The enzyme solution was then removed, and the detached biomass was removed via rinsing steps. Crystal violet (CV) dye was then used to quantify residual biomass. […] CV staining was quantified via spectrophotometry by measuring the absorbance at 570 nm.
The different strains of S. aureus and P. aeruginosa (Table 1) were inoculated in 5 ml of TGN culture medium (Tryptic Soy Broth VWR+1% glucose+2% NaCl) from 20 μl of a stored glycerol stock at −80° C. […] The plates were then emptied, the biofilm was washed 2× with 200 μl PBS pH 7.5 (Sigma) and dried at 60° C. for 18 h before the biomass was analysed.
To quantify the residual biomass, a 1% CV solution (Sigma) was added to the biofilms at room temperature for 15 min. […] The dye attached to the biofilm was then detached and dissolved with 66% […] and absorbance at 570 nm (A570) was measured in a SpectraMax M3 multimode reader. This absorbance value corresponds to the biomass of the biofilm. […]

[5] = system: S. epidermidis ATCC35984 biofilm; assay: as above; conditions: 100 U/ml in TGN, vs CT−, 1 biofilm/3 of the panel significantly reduced
[6] = system: MG63 osteoblasts
Experimental: Cytotoxicity tests were performed on MG63 osteoblasts and other cell types.

[7] = system: biofilms comprising Candida albicans; assay: Enzyme treatment of biofilms comprising Candida albicans followed by antifungal/antibiotic; conditions: Candida albicans alone or with S. aureus and/or E. coli; enzymes 30 minutes or 1 hour, then Caspofungin (and Moxifloxacin or Meropenem) 24 hours
Text: The inventors then attempted to treat biofilms comprising Candida albicans, either in monoculture or in complex biofilm models comprising Candida albicans and prokaryotes. Different strains of Candida albicans were used: the ATCC24433 strain, as well as strains isolated from orthopaedic prosthesis infections. Subtilisin (protease from Bacillus licheniformis) and lyticase (from Arthrobacter luteus or Bacillus subtilis) were obtained at Sigma. The other enzymes are those used above.
The antifungal drug Caspofungin (Merck Sharp & Dohme) and, for complex biofilms additionally comprising one or more prokaryotes, the antibiotics Moxifloxacin HCl (Bayer) or Meropenem (Mylan) were used (24 hours of treatment, after the application of enzymes).

Molecule: CN[C@H](CC(C)C)C(=O)N[C@H]1C(=O)N[C@@H](CC(N)=O)C(=O)N[C@H]2C(=O)N[C@H]3C(=O)N[C@H](C(=O)N[C@H](C(=O)O)c4cc(O)cc(O)c4-c4cc3ccc4O)[C@H](O)c3ccc(c(Cl)c3)Oc3cc2cc(c3O[C@@H]2O[C@H](CO)[C@@H](O)[C@H](O)[C@H]2O[C@H]2C[C@](C)(N)[C@H](O)[C@H](C)O2)Oc2ccc(cc2Cl)[C@H]1O [vancomycin]
- effect on viability of the biofilm (in words) ([1]; 20 mM TrisHCl pH7): only very slightly reduces
- effect on viability of the biofilm (in words) ([1]; TGN): does not reduce
- effect on viability in biofilm (in words) ([2]; S. aureus ATCC33591, titanium coupons, absence of enzyme treatment (CT−, Tris-HCl)): does not decrease viability in biofilm
- effect on viability in biofilm (in words) ([2]; S. aureus ATCC33591 and 144-20, absence of enzyme treatment (CT−, TGN)): does not significantly reduce viability in biofilm
- effect on viability in biofilm (in words) [3]: does not significantly reduce viability in biofilm

B1: CE1: RNase I (Escherichia coli endoribonuclease, class EC4.6.1) 100 U/ml in TGN (protein, UniProt P21338 24-268, looked up)
Ribonuclease I: LALQAKQYGDFDRYVLALSWQTGFCQSQHDRNRNERDECRLQTETTNKADFLTVHGLWPGLPKSVAARGVDERRWMRFGCATRPIPNLPEARASRMCSSPETGLSLETAAKLSEVMPGAGGRSCLERYEYAKHGACFGFDPDAYFGTMVRLNQEIKESEAGKFLADNYGKTVSRRDFDAAFAKSWGKENVKAVKLTCQGNPAYLTEIQISIKADAINAPLSANSFLPQPHPGNCGKTFVIDKAGY
- effect on the decrease in the biomass percentage of the biofilms (in words) [4]: little or no significant effect
- effect on the decrease in the biomass percentage of the biofilms (in words) [5]: little or no significant effect

B2: subtilisin: protease from Bacillus licheniformis (Sigma) (protein, UniProt P00780 106-379, looked up)
Subtilisin Carlsberg: AQTVPYGIPLIKADKVQAQGFKGANVKVAVLDTGIQASHPDLNVVGGASFVAGEAYNTDGNGHGTHVAGTVAALDNTTGVLGVAPSVSLYAVKVLNSSGSGSYSGIVSGIEWATTNGMDVINMSLGGASGSTAMKQAVDNAYAKGVVVVAAAGNSGSSGNTNTIGYPAKYDSVIAVGAVDSNSNRASFSSVGAELEVMAPGAGVYSTYPTNTYATLNGTSMASPHVAGAAALILSKHPNLSASQVRNRLSSTATYLGSSFYYGKGLINVEAAAQ
- concentration at which already toxic to osteoblasts [6]: about 0.5 U/mL
- effect on biofilms comprising Candida albicans (in words) [7]: sensitised biofilms
